Read-outs that look alike come from different tables or passages of the source.
Experiments:
Type in all cases: in vivo
green rice leafhopper = assay: Green rice leafhopper control test (foliar application); details: Nephotettix cincticeps, 96 h
Protocol: Rice seedlings grown in pots were subjected to the foliar application of solutions of the inventive compounds at a predetermined concentration prepared to 50% acetone/water (containing 0.05% Tween 20). The treated seedlings were air dried, following which second-instar larvae were released onto the seedlings. The seedlings and larvae were then held in an incubation chamber at 25° C. (16-hour period of light, 8-hour dark period). Four days after released, the numbers of live and dead insects were counted, and the mortality was calculated from the following formula. This was a two-replication test. Mortality (%)=[number of dead insects/(number of live insects+number of dead insects)]×100

[1] = tested on: brown rice planthopper having a low susceptibility to insecticides; set-up: key to Brown rice planthopper, Kumamoto low susceptibility (rice soil drenching), effect: mortality %, dead/(live+dead) ×100; details: for Mortality: all the lines (susceptible line, field-collected lines I and II); for Insecticidal effects (mortality), brown rice planthopper second-instar larvae: soil drenching treatment
Protocol: (§1) Rice seedlings grown in pots were subjected to soil drenching treatment with solutions of the inventive compounds at a predetermined concentration prepared to 10% acetone/water. Three days after treatment, ten second-instar brown rice planthopper larvae having a low susceptibility to insecticides were released onto each seedling. The seedlings and insects were then held in an incubation chamber at 25° C. (16-hour period of light, 8-hour dark period). Three days after released, the numbers of live and dead insects were counted, and the mortality was calculated from the following formula. The test was carried out as two replications. Mortality (%)=[number of dead insects/(number of live insects+number of dead insects)]×100
The pests used in this test were insects that had been raised indoors for successive generations over a long period of time (susceptible line), and insects that had been raised indoors for successive generations after being collected (I) in 2007 within Kumamoto Prefecture and (II) in 2005 within Fukuoka Prefecture (field-collected lines).

[2] = tested on: small brown planthopper having a low susceptibility to insecticides; assay: Small brown planthopper control test, pests having a low susceptibility to insecticides (soil drenching); details: both lines (susceptible and field-collected)
Protocol: as §1, with “second-instar small” for “second-instar”, “brown” for “brown rice”
The pests used in this test were insects that had been raised indoors for successive generations over a long period of time (susceptible line), and insects that had been raised indoors for successive generations after being collected in 2006 within Kumamoto Prefecture (field-collected line).

brown-winged green bug = assay: Brown-winged green bug control test; details: 50 ppm foliar application on young apples, adults, 6 days after release
Protocol: Young apples that had been collected in the field were sprayed with solutions of the inventive compounds at a predetermined concentration prepared to 50% acetone/water (containing 0.05% Tween 20). The treated fruits were air-dried, placed in plastic cups and two adult brown-winged green bugs were released into each cup. Following release of the insects, the fruits and insects were held in an incubation chamber at 25° C. (16-hour period of light, 8-hour dark period). Six days after released, the numbers of live and dead insects were counted, and the mortality was calculated from the following formula. Mortality (%)=[number of dead insects/(number of live insects+number of dead insects)]×100

small brown planthopper [3] = assay: whole plant or invertebrate; details: Laodelphax striatellus, 72 h
Method in brief: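 Rice seedlings in pots soil-drenched with compound at a set concentration in 10% acetone/water; ten second-instar larvae released per seedling 3 days later. Held at 25° C. (16 h light/8 h dark) and scored live/dead 3 days after release. Mortality (%) = dead/(live+dead)×100; two replications.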

western flower thrips = assay: whole plant or invertebrate; details: Frankliniella occidentalis, foliar
Method in brief: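 Bean leaf discs sprayed with compound in 50% acetone/water with 0.05% Tween 20, air dried, then infested with first-instar larvae. Held at 25° C under 16 h light/8 h dark; live and dead counted after 3 days to give % mortality, two replicates.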

small brown planthopper [4] = assay: whole plant or invertebrate; details: Laodelphax striatellus, in Triticum aestivum, 96 h
Method in brief: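 Roots of 48-h wheat seedlings took up compound in 10% acetone/water for 72 h, then ten second-instar larvae were released per seedling and held at 25 °C (16 h light/8 h dark). Mortality counted four days after release; two replications.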

[5] = 0.005 mg/seedling soil drenching
[6] = soil, read-out: Insecticidal effects (mortality), small brown planthopper second-instar larvae
[7] = read-out: Insecticidal effects (mortality), western flower thrips first-instar larvae
[8] = read-out: Insecticidal effects (mortality), small brown planthopper second-instar larvae

O=C(N=c1ccccn1Cc1ccc(Cl)nc1)C(F)(F)F [Compound 212, N-[1-((6-chloropyridin-3-yl)methyl)pyridin-2(1H)-ylidene]-2,2,2-trifluoroacetamide]
mortality at 100 ppm (green rice leafhopper): ≥ 80% | Mortality [1, 5]: at least 90% | Mortality ([1]; 0.05 mg/seedling soil drenching): 100% | Brown rice planthopper, Kumamoto low susceptibility (rice soil drenching), effect ([1]; 0.005 mg/pot): 90 | Brown rice planthopper, Kumamoto low susceptibility (rice soil drenching), effect ([1]; 0.05 mg/pot): 100 | Insecticidal effects (mortality), brown rice planthopper second-instar larvae ([1]; 0.02 mg/pot): 100 | Insecticidal effects (mortality), brown rice planthopper second-instar larvae ([1]; 0.05 mg/pot): 100 | Mortality [2, 5]: at least 90% | Mortality ([2]; 0.01 mg/seedling soil drenching): 100% | Mortality (brown-winged green bug): at least 80% | pest or weed control at 0.002 mg/pot (small brown planthopper [3]; rice soil drenching, 0.002 mg/pot (Table 13), read-out: Small brown planthopper (rice soil drenching), effect): 85% | pest or weed control at 0.005 mg/pot (small brown planthopper [3]; rice soil drenching, 0.005 mg/pot (Table 13), read-out: Small brown planthopper (rice soil drenching), effect): 95% | pest or weed control at 0.01 mg/pot (small brown planthopper [3]; rice soil drenching, 0.01 mg/pot (Table 13), read-out: Small brown planthopper (rice soil drenching), effect): 100% | pest or weed control at 0.05 mg/pot (small brown planthopper [3]; rice soil drenching, 0.05 mg/pot (Table 13), read-out: Small brown planthopper (rice soil drenching), effect): 100% | mortality at 0.005 mg/seedling (small brown planthopper [3]; soil): 95% | mortality at 0.05 mg/seedling (small brown planthopper [3]; soil): ≥ 80% | mortality at 0.002 mg/pot (small brown planthopper [3]; [6]): 85% | mortality at 0.005 mg/pot (small brown planthopper [3]; [6]): 95% | mortality at 0.01 mg/pot (small brown planthopper [3]; [6]): 100% | mortality at 0.05 mg/pot (small brown planthopper [3]; [6]): 100% | mortality at 100 ppm (western flower thrips; 72 h): ≥ 80% | mortality at 500 ppm (western flower thrips; 72 h): ≥ 80% | mortality at 20 ppm (western flower thrips; [7]): 65% | mortality at 100 ppm (western flower thrips; [7]): 100% | mortality at 500 ppm (western flower thrips; [7]): 100% | mortality at 20 µg/seedling (small brown planthopper [4]): ≥ 80% | mortality at 0.0078 mg/seedling (small brown planthopper [4]; [8]): 50% | mortality at 0.016 mg/seedling (small brown planthopper [4]; [8]): 50% | mortality at 0.031 mg/seedling (small brown planthopper [4]; [8]): 100% | mortality at 0.063 mg/seedling (small brown planthopper [4]; [8]): 100% | mortality at 0.125 mg/seedling (small brown planthopper [4]; [8]): 100% | mortality at 0.25 mg/seedling (small brown planthopper [4]; [8]): 100% | mortality at 0.5 mg/seedling (small brown planthopper [4]; [8]): 100% | mortality at 2 mg/seedling (small brown planthopper [4]; [8]): 100% | mortality at 20 mg/seedling (small brown planthopper [4]; [8]): 100%
